Experimental findings from ChEMBL document CHEMBL1201862, “PubChem BioAssay data set” (2004) are described below.

The structures appear in SMILES notation.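 Results reflect a 48-hour exposure of cells in 96-well plates to compound at five concentrations. GI50 = concentration required for 50% inhibition of growth.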 The source made the active and inactive calls. Cut-off read from the data, not from the text of the source: active = GI50 up to about 1.1 µM and inactive = higher. Bounds are passed on as bounds.

Some test systems named below: SF-539; CAKI-1; UACC-257; DU-145; M14; KM12; CCRF-CEM; MCF7; SNB-19; OVCAR-4; OVCAR-5; COLO 205; MOLT-4; SF-295; RPMI-8226; SNB-75; SR; SK-MEL-28; K562.
Common to all, as to test: growth of human tumour cells (NCI), 48 h

`O=C(CCN1CCOCC1)Nc1ccc2sc3ccccc3c(=O)c2n1`: the GI50 in the assay with SF-539 is 60.5 µM (inactive); with CAKI-1, 23.6 µM (inactive); in the assay with UACC-257 it was 62.2 µM (inactive); in the assay on DU-145 it was 47 µM (inactive); with M14 it was 37.8 µM (inactive); with KM12, 50.4 µM (inactive). In addition, the GI50 is 19.7 µM (inactive) with CCRF-CEM; 49.8 µM (inactive) with MCF7; 49.2 µM (inactive) in the assay with SNB-19; 61.1 µM (inactive) in the assay on OVCAR-4; > 100 µM (inactive) in the assay on OVCAR-5; 25 µM (inactive) in the assay with COLO 205. Also, the GI50 with MOLT-4 is > 10 µM (inactive); with SF-295, 82.4 µM (inactive); with RPMI-8226 it was 28 µM (inactive); with SNB-75, 19.6 µM (inactive); in the assay with SR it was 44.3 µM (inactive); in the assay with SK-MEL-28, 53.5 µM (inactive). Moreover, the GI50 with K562 is 8.49 µM (inactive).
Consider `c1ccc(/C(=N\Nc2nc3ccccc3[nH]2)c2ccccn2)cc1`, for which the GI50 is 0.388 µM (active) in the assay with SF-539; 0.425 µM (active) with CAKI-1; 0.298 µM (active) in the assay with UACC-257; 2.13 µM (inactive) in the assay with DU-145; 0.361 µM (active) with M14; 0.735 µM (active) in the assay with KM12. In addition, the GI50 with CCRF-CEM is 0.0959 µM (active); in the assay with MCF7, 0.148 µM (active); with SNB-19, 1.22 µM (inactive); in the assay on OVCAR-4 it was 0.208 µM (active); with OVCAR-5, 0.733 µM (active); in the assay on COLO 205 it was < 0.0207 µM (active). Besides, the GI50 is 0.012 µM (active) in the assay with MOLT-4; 1.69 µM (inactive) in the assay with SF-295; 0.242 µM (active) with RPMI-8226; 0.531 µM (active) in the assay on SNB-75; 0.348 µM (active) in the assay on SR; 1.14 µM (inactive) in the assay with SK-MEL-28. Moreover, the GI50 with K562 is 0.222 µM (active).
Consider `CCOC(=O)c1ccc(C(=O)/C(C#N)=C2\CCCN2)[nH]1`, for which the GI50 with SF-539 is > 100 µM (inactive); in the assay with CAKI-1, > 100 µM (inactive); in the assay with UACC-257 it was > 100 µM (inactive); in the assay on DU-145, > 100 µM (inactive); with M14 it was > 100 µM (inactive); with KM12, 55 µM (inactive). Moreover, the GI50 with CCRF-CEM was 63.2 µM (inactive); in the assay on MCF7, 98.4 µM (inactive); in the assay with SNB-19 it was > 100 µM (inactive); in the assay with OVCAR-4, > 100 µM (inactive); with OVCAR-5, > 100 µM (inactive); in the assay with COLO 205, > 100 µM (inactive). For the same compound, the GI50 was 48.2 µM (inactive) in the assay on MOLT-4; > 100 µM (inactive) with SF-295; > 100 µM (inactive) in the assay on RPMI-8226; 34 µM (inactive) in the assay on SNB-75; 19.6 µM (inactive) in the assay on SR; > 100 µM (inactive) in the assay on SK-MEL-28. For the same compound, the GI50 with K562 was 52.6 µM (inactive).
For the compound `CCOC(=O)/C=C(\C(=O)OCC)n1ccc(=O)n(Cc2cn(CCCCOC(C)=O)nn2)c1=O`, the GI50 with SF-539 is 2.34 µM (inactive); with CAKI-1 it was 4.25 µM (inactive); in the assay on UACC-257, 17.4 µM (inactive); in the assay on DU-145 it was 20.5 µM (inactive); in the assay on M14, 23.9 µM (inactive); in the assay on KM12 it was 16 µM (inactive). Further, the GI50 in the assay on CCRF-CEM was 1.28 µM (inactive); in the assay on MCF7, 7.69 µM (inactive); in the assay on SNB-19, > 39.7 µM (inactive); in the assay with OVCAR-4, 19.4 µM (inactive); in the assay with OVCAR-5, 14.3 µM (inactive); in the assay with COLO 205 it was 2.89 µM (inactive). Besides, the GI50 with MOLT-4 was 2.4 µM (inactive); in the assay on SF-295, 35.9 µM (inactive); in the assay on RPMI-8226, 8.65 µM (inactive); in the assay on SNB-75 it was 19.5 µM (inactive); in the assay with SR, 10.1 µM (inactive); in the assay with SK-MEL-28 it was 8.17 µM (inactive). Further, the GI50 in the assay with K562 is 4.59 µM (inactive).
For the compound `C#CCn1c(=O)ccn(/C(=C/C(=O)OCC)C(=O)OCC)c1=O`, the GI50 in the assay with SF-539 is 1.48 µM (inactive); with CAKI-1, 1.58 µM (inactive); in the assay with UACC-257 it was 15 µM (inactive); in the assay on DU-145, 13.8 µM (inactive); in the assay on M14 it was 4.05 µM (inactive); with KM12 it was 17.4 µM (inactive). Also, the GI50 is 0.61 µM (active) in the assay with CCRF-CEM; 3.18 µM (inactive) with MCF7; 19 µM (inactive) in the assay on SNB-19; 4.62 µM (inactive) in the assay with OVCAR-4; 7.13 µM (inactive) in the assay on OVCAR-5; 1.81 µM (inactive) in the assay on COLO 205. For the same compound, the GI50 in the assay with MOLT-4 is 3.43 µM (inactive); in the assay with SF-295, 24.6 µM (inactive); with RPMI-8226, 2.9 µM (inactive); in the assay on SNB-75, 20.8 µM (inactive); in the assay on SR, 3.45 µM (inactive); with SK-MEL-28, 7.41 µM (inactive). In addition, the GI50 in the assay on K562 was 3.36 µM (inactive).
`CCOC(=O)c1nc2ccccc2nc1Nc1cc(OC)c(OC)c(OC)c1`: the GI50 in the assay on SF-539, with CAKI-1, in the assay on DU-145, in the assay on M14, in the assay with KM12 and with CCRF-CEM was > 100 µM (inactive) in each case. Besides, the GI50 in the assay on MCF7, in the assay on SNB-19, in the assay with OVCAR-4, with OVCAR-5, in the assay on COLO 205 and in the assay with MOLT-4 was > 100 µM (inactive) each time. The GI50 with SF-295 is > 100 µM (inactive); with RPMI-8226, > 100 µM (inactive); in the assay on SNB-75, 43.6 µM (inactive); in the assay on SR, > 100 µM (inactive); with SK-MEL-28, > 100 µM (inactive); with K562, > 100 µM (inactive).
As for `COc1cc(S(=O)(=O)Nc2ccc(-c3csc(/N=C\c4ccccc4)n3)cc2)ccc1Cl`, the GI50 was 35.1 µM (inactive) in the assay with SF-539; > 100 µM (inactive) in the assay on CAKI-1; 85.1 µM (inactive) with DU-145; 56.1 µM (inactive) in the assay on M14; 36.4 µM (inactive) in the assay on KM12; 17 µM (inactive) in the assay with CCRF-CEM. For the same compound, the GI50 with MCF7 is 20.5 µM (inactive); in the assay with SNB-19, 31.6 µM (inactive); in the assay on OVCAR-4 it was 79.4 µM (inactive); in the assay on OVCAR-5, > 100 µM (inactive); in the assay on COLO 205, 36.4 µM (inactive); with MOLT-4, 12.7 µM (inactive). Also, the GI50 with SF-295 is 76.9 µM (inactive); with RPMI-8226, 32 µM (inactive); in the assay on SNB-75, 62.7 µM (inactive); with SR, 29.8 µM (inactive); in the assay on SK-MEL-28, 33.7 µM (inactive); in the assay with K562, 32.2 µM (inactive).
Regarding `CCOc1cc(NC(C)=O)ccc1C(=O)NNS(=O)(=O)c1ccc(NC(C)=O)cc1`, the GI50 in the assay on SF-539 is 33.2 µM (inactive); in the assay with CAKI-1, 54.6 µM (inactive); with UACC-257 it was > 100 µM (inactive); with DU-145, > 100 µM (inactive); in the assay on M14, 56 µM (inactive); in the assay with KM12, 41.5 µM (inactive). The GI50 is 38.9 µM (inactive) in the assay with CCRF-CEM; 40.6 µM (inactive) with MCF7; 77.4 µM (inactive) in the assay on SNB-19; 73.6 µM (inactive) in the assay on OVCAR-4; > 100 µM (inactive) in the assay on OVCAR-5; 24.7 µM (inactive) with COLO 205. Also, the GI50 was 37.2 µM (inactive) in the assay on MOLT-4; 39.4 µM (inactive) in the assay on SF-295; 31.7 µM (inactive) in the assay with RPMI-8226; 72.9 µM (inactive) in the assay on SNB-75; 13.6 µM (inactive) in the assay on SR; 99.1 µM (inactive) with SK-MEL-28. Also, the GI50 in the assay with K562 is 38 µM (inactive).
